Tests used:
[1] = system: A549 human lung carcinoma cells; test: MTS cell viability assay, A549 human lung carcinoma cells; assay type: cell-based; conditions: A549, 4 h compound incubation, MTS, read-out: IC50 Values, Cancerous Cells, Lung A549
[2] = system: DLD-1 human colon carcinoma cells; test: MTS cell viability assay, DLD-1 human colon carcinoma cells; assay type: cell-based; conditions: DLD-1, 4 h compound incubation, MTS, read-out: IC50 Values, Cancerous Cells, Colon DLD-1
[3] = system: DU-145 human prostate carcinoma cells; test: MTS cell viability assay, DU-145 human prostate carcinoma cells; assay type: cell-based; conditions: DU-145, 4 h compound incubation, MTS, read-out: IC50 Values, Cancerous Cells, Prostate DU-145
[4] = system: K-562 human leukemia cells; test: MTS cell viability assay, K-562 human leukemia cells; assay type: cell-based; conditions: K562, K-562, 4 h compound incubation, MTS, read-out: IC50 Values, Cancerous Cells, Leukemia K-562
[5] = system: HT-29 human colon carcinoma cells; test: MTS cell viability assay, HT-29 human colon carcinoma cells; assay type: cell-based; conditions: 4 h compound incubation, read-out: IC50 Values, Cancerous Cells, Colon HT-29
[6] = system: PACA-2 human pancreatic carcinoma cells; test: MTS cell viability assay, PACA-2 human pancreatic carcinoma cells; assay type: cell-based; conditions: PACA-2, 4 h compound incubation, MTS, read-out: IC50 Values, Cancerous Cells, Pancreas PACA-2
[7] = system: NCM-460 normal colon epithelial cells; test: MTS cell viability assay, NCM-460 normal colon epithelial cells; assay type: cell-based; conditions: for IC50: Homo sapiens, NCM460, NCM-460, 4 h compound incubation, MTS, read-out: IC50 Values, Normal Cells, Colon NCM-460; for Fold Selectivity (NCM-460/DLD1): ratio of IC50 NCM-460 / DLD1
E2F-1 = E2F-1 induction in HT-29 cells; assay type: cell-based, human
Description: Another effect of the compounds of the present invention is the induction or elevation of activity (e.g. elevation of the level) of one or more checkpoint molecules (i.e., a member of the E2F family of transcription factors). Studies have shown that β-lapachone induces activation of E2F1 checkpoint pathway in nuclei of cancer cells but not in normal cells, resulting in the arrest of cancer cells in G1 and/or S phase. Several compounds of the present invention were effective in activating the E2F1 checkpoint pathway (e.g. elevation of E2F1 levels), thus causing G1 and/or S phase arrest. Furthermore, the compounds of the present invention have no significant toxic effects on normal cells (See. Table 1). The assays of the present invention as shown in Table 1 and methods of measuring induction of E2F1 activity and elevation of E2F1 levels can be carried out following the descriptions found in Li et al., (2003) Proc Natl Acad Sci USA. 100(5): 2674-8 and U.S. Patent Application Publication No. 2002/0169135, both incorporated herein by reference.

[8] = system: HT29 human colon cancer xenograft; test: Colon cancer xenograft model (HT29) in athymic nude mice; assay type: in vivo
Method: Tumors were allowed to grow to approximately 70 mm^3 in size. Animals were randomized into two groups of eight animals per group. […] Drug or vehicle was administered every Monday, Wednesday and Friday for a total of nine doses (qMWFx3). Tumor size was evaluated periodically during the study. For each subject, tumor volume was calculated using the formula (L×W^2)/2 where L and W were the length and width of the tumor, respectively. The arithmetic mean tumor volume was calculated for each treatment group +/− standard error of the mean (SEM). […] Tumors were allowed to grow to approximately 90 mm^3 in size. Animals were randomized into three groups of eight animals per group. […] Drug or vehicle was administered every Monday, Wednesday and Friday for a total of nine doses (qMWFx3). Tumor size was evaluated periodically during the study. For each subject, tumor volume was calculated using the formula (L×W^2)/2 where L and W were the length and width of the tumor, respectively. The arithmetic mean tumor volume was calculated for each treatment group +/− standard error of the mean (SEM). […] Tumors were allowed to grow to approximately 60 mm^3 in size. Animals were randomized into two groups of eight animals per group. At day five post injection, mice with established tumors were treated intraperitoneally with either Compound 182 (40 mg/kg) or vehicle control. Drug or vehicle was administered every Monday, Wednesday and Friday for a total of nine doses (qMWFx3). Tumor size was evaluated periodically during the study. For each subject, tumor volume was calculated using the formula (L×W^2)/2 where L and W were the length and width of the tumor, respectively. The arithmetic mean tumor volume was calculated for each treatment group +/− standard error of the mean (SEM). […] Tumors were allowed to grow to approximately 50 mm^3 in size. Animals were randomized into three groups of five animals per group. At day eight post injection, mice with established tumors were treated intraperitoneally with either Compound 180 (40 mg/kg) or Compound 125 (40 mg/kg) and vehicle control. Drug or vehicle was administered every Monday, Wednesday and Friday for a total of twelve doses (qMWFx4). Tumor size was evaluated periodically during the study. For each subject, tumor volume was calculated using the formula (L×W^2)/2 where L and W were the length and width of the tumor, respectively. The arithmetic mean tumor volume was calculated for each treatment group +/−standard error of the mean (SEM).

human cancer cell lines = conditions: single agent; read-out: antineoplastic activity against human cancer cell lines (IC50); cited from earlier work
[9] = system: normal fresh or proliferating human PBMC; conditions: cited from earlier work
[10] = 40 mg/kg intraperitoneally qMWFx4, HT29 xenograft
[11] = 40 mg/kg intraperitoneally qMWFx3, HT29 xenograft
[12] = 32 mg/kg intraperitoneally qMWFx3, HT29 xenograft
[13] = 48 mg/kg intraperitoneally qMWFx3, HT29 xenograft

Row | SMILES | IC50 [1] [nM] | IC50 [2] [nM] | IC50 [3] [nM] | IC50 [4] [nM] | IC50 [5] [nM] | IC50 [6] [nM] | IC50 [7] [nM] | Fold Selectivity (NCM-460/DLD1) [7] | E2F-1 Induction (HT-29) (E2F-1) | % T/C [8, 10] [%] | reduction of mean tumor volume compared to vehicle treated control [8, 10] [%] | % T/C [8, 11] [%] | reduction of mean tumor volume compared to vehicle treated control [8, 11] [%] | % T/C [8, 12] [%] | reduction of mean tumor volume compared to vehicle treated control [8, 12] [%] | Opt. % T/C [8, 13] [%] | reduction of mean tumor volume compared to vehicle treated control [8, 13] [%] | IC50 (human cancer cell lines) [nM] | cytotoxic effects on normal fresh or proliferating human PBMC [9]
1 | O=C1C(=O)c2ccccc2C2=C1SCC1(CCN(Cc3ccc(F)cc3)CC1)O2 [Compound 125, 1′-(4-fluorobenzyl)spiro[naphtho[1,2-b][1,4]oxathiine-2,4′-piperidine]-5,6-dione] | 9570 | 1710 | 5060 | 3740 | 4950 | 2500 | 9750 | 5.7 | Yes | 46.2 | 57.8 |  |  |  |  |  |  |  | 
2 | O=C1C(=O)c2ccccc2C2=C1SCC1(CCN(C[C@H](O)COc3ccc(F)cc3)CC1)O2 [Compound 180, 1′-[(2S)-3-(4-fluorophenoxy)-2-hydroxypropyl]spiro[naphtho[1,2-b][1,4]oxathiine-2,4′-piperidine]-5,6-dione] | 3530 | 708 | 1480 | 1460 | 2200 | 958 | 3570 | 5.0 | Yes | 58.3 | 41.7 |  |  |  |  |  |  |  | 
3 | O=C1C(=O)c2ccccc2C2=C1SCC1(CCN(C[C@H](O)COc3ccc(Cl)cc3)CC1)O2 [Compound 182, 1′-[(2S)-3-(4-chlorophenoxy)-2-hydroxypropyl]spiro[naphtho[1,2-b][1,4]oxathiine-2,4′-piperidine]-5,6-dione] | 6450 | 1300 | 1280 | 3250 | 2070 | 1330 | 11200 | 8.6 | Yes |  |  | 44.8 | 55.2 |  |  |  |  |  | 
4 | O=C1C(=O)c2ccccc2C2=C1SCC1(CCN(C[C@@H](O)COc3ccc(Cl)cc3)CC1)O2 [Compound 183, 1′-[(2R)-3-(4-chlorophenoxy)-2-hydroxypropyl]spiro[naphtho[1,2-b][1,4]oxathiine-2,4′-piperidine]-5,6-dione] | 3100 | 1040 | 796 | 2420 | 3880 | 700 | 10200 | 9.8 | Yes |  |  |  |  |  |  |  |  |  | 
5 | CC(C)(C)c1ccc(OC[C@@H](O)CN2CCC3(CC2)CSC2=C(O3)c3ccccc3C(=O)C2=O)cc1 [Compound 184, 1′-[(2S)-3-(4-tert-butylphenoxy)-2-hydroxypropyl]spiro[naphtho[1,2-b][1,4]oxathiine-2,4′-piperidine]-5,6-dione] | 5850 | 2580 | 1650 | 5340 | 3670 | 1710 | 27800 | 10.8 | Yes |  |  |  |  | 29.8 | 70.2 |  |  |  | 
6 | CC1(C)CCC2=C(O1)c1ccccc1C(=O)C2=O [β-lapachone, 3,4-dihydro-2,2-dimethyl-2H-naphtho[1,2-b]pyran-5,6-dione] |  |  |  |  |  |  |  |  |  |  |  |  |  |  |  |  |  | 1000 to 10000 | No cytotoxic effects

Further lines, with some results ahead:

Row | IC50 [1] [nM] | IC50 [2] [nM] | IC50 [3] [nM] | IC50 [4] [nM] | IC50 [5] [nM] | IC50 [6] [nM] | SMILES | IC50 [7] [nM] | Fold Selectivity (NCM-460/DLD1) [7] | E2F-1 Induction (HT-29) (E2F-1) | % T/C [8, 10] [%] | reduction of mean tumor volume compared to vehicle treated control [8, 10] [%] | % T/C [8, 11] [%] | reduction of mean tumor volume compared to vehicle treated control [8, 11] [%] | % T/C [8, 12] [%] | reduction of mean tumor volume compared to vehicle treated control [8, 12] [%] | Opt. % T/C [8, 13] [%] | reduction of mean tumor volume compared to vehicle treated control [8, 13] [%] | IC50 (human cancer cell lines) [nM] | cytotoxic effects on normal fresh or proliferating human PBMC [9]
7 | 7420 | 3380 | 1010 | 4460 | 2470 | 1370 | CC(C)(C)c1ccc(OC[C@H](O)CN2CCC3(CC2)CSC2=C(O3)c3ccccc3C(=O)C2=O)cc1 [Compound 185, 1′-[(2R)-3-(4-tert-butylphenoxy)-2-hydroxypropyl]spiro[naphtho[1,2-b][1,4]oxathiine-2,4′-piperidine]-5,6-dione] | 13700 | 4.1 | YES |  |  |  |  |  |  |  |  |  | 
8 | 5500 | 1500 | 2100 | 2300 | 6500 | 1500 | O=C1C(=O)c2ccccc2C2=C1SCC1(CCN(C[C@H](O)Cc3ccccc3)CC1)O2 [Compound 186, 1′-[(2R)-2-hydroxy-3-phenylpropyl]spiro[naphtho[1,2-b][1,4]oxathiine-2,4′-piperidine]-5,6-dione] | 6800 | 4.7 | YES |  |  |  |  | 50 | 50 |  |  |  | 
9 | 5100 | 2100 | 3000 | 2700 | 5500 | 1900 | O=C1C(=O)c2ccccc2C2=C1SCC1(CCN(C[C@@H](O)Cc3ccccc3)CC1)O2 [Compound 187, 1′-[(2S)-2-hydroxy-3-phenylpropyl]spiro[naphtho[1,2-b][1,4]oxathiine-2,4′-piperidine]-5,6-dione] | 8100 |  | YES |  |  |  |  |  |  | 38 | 62 |  | 

From patent publication US7902354B2, “Lapachone compounds and methods of use thereof” (ArQule, Inc., priority 2006, dated 2011)
